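Following 48 hours of exposure in 96-well plates, responses at five concentrations were used to interpolate endpoints linearly. GI50 is the concentration that inhibits growth by half.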 The source made the active and inactive calls. Cut-off read from the data, not from the text of the source: active = GI50 up to about 1.1 µM and inactive = higher.
Assays:
Assay in all cases: NCI tumour cell line growth inhibition, 48 h
SNB-19 = test system: SNB-19
NCI-H23 = test system: NCI-H23
NCI/ADR-RES = test system: NCI/ADR-RES
RXF 393 = test system: RXF 393
SK-MEL-2 = test system: SK-MEL-2
OVCAR-3 = test system: OVCAR-3
KM12 = test system: KM12
NCI-H460 = test system: NCI-H460
OVCAR-4 = test system: OVCAR-4
M14 = test system: M14
NCI-H226 = test system: NCI-H226
SF-268 = test system: SF-268
SF-295 = test system: SF-295
HOP-62 = test system: HOP-62
MCF7 = test system: MCF7
NCI-H522 = test system: NCI-H522
Malme-3M = test system: Malme-3M
BT-549 = test system: BT-549
HOP-92 = test system: HOP-92
HCC 2998 = test system: HCC 2998

Structure (SMILES) | GI50 (SNB-19) | GI50 (NCI-H23) | GI50 (NCI/ADR-RES) | GI50 (RXF 393) | GI50 (SK-MEL-2) | GI50 (OVCAR-3) | GI50 (KM12) | GI50 (NCI-H460) | GI50 (OVCAR-4) | GI50 (M14) | GI50 (NCI-H226) | GI50 (SF-268) | GI50 (SF-295) | GI50 (HOP-62) | GI50 (MCF7) | GI50 (NCI-H522) | GI50 (Malme-3M) | GI50 (BT-549) | GI50 (HOP-92) | GI50 (HCC 2998)
CC(NCCN(C)C)C1CCC2C3CCc4cc(O)ccc4C3CCC12C (configuration not stated) | 3.54 µM (inactive) | 4.45 µM (inactive) | 2.86 µM (inactive) | 1.85 µM (inactive) | 1.91 µM (inactive) | 1.88 µM (inactive) | 3.21 µM (inactive) | 2.2 µM (inactive) | 3.02 µM (inactive) | 1.67 µM (inactive) | 17.8 µM (inactive) | 5.28 µM (inactive) | 2.59 µM (inactive) | 3.24 µM (inactive) | 2.96 µM (inactive) | 3.2 µM (inactive) | 1.68 µM (inactive) | 17.4 µM (inactive) | 2.81 µM (inactive) | –
c1ccc(/N=C2\SC(c3ccccc3)CN2C23CC4CC(CC(C4)C2)C3)cc1 (configuration not stated) | > 100 µM (inactive) | > 100 µM (inactive) | > 100 µM (inactive) | > 100 µM (inactive) | > 100 µM (inactive) | > 100 µM (inactive) | > 100 µM (inactive) | > 100 µM (inactive) | > 100 µM (inactive) | > 100 µM (inactive) | > 100 µM (inactive) | > 100 µM (inactive) | > 100 µM (inactive) | > 100 µM (inactive) | > 100 µM (inactive) | > 100 µM (inactive) | > 100 µM (inactive) | > 100 µM (inactive) | > 100 µM (inactive) | > 100 µM (inactive)
CCOC(=O)N/N=C(/OCC)c1ccccc1 | > 100 µM (inactive) | > 100 µM (inactive) | > 100 µM (inactive) | > 100 µM (inactive) | > 100 µM (inactive) | > 100 µM (inactive) | > 100 µM (inactive) | > 100 µM (inactive) | > 100 µM (inactive) | – | > 100 µM (inactive) | > 100 µM (inactive) | > 100 µM (inactive) | > 100 µM (inactive) | > 100 µM (inactive) | > 100 µM (inactive) | > 100 µM (inactive) | > 100 µM (inactive) | > 100 µM (inactive) | > 100 µM (inactive)
O=C1O[C@H](COC(=O)c2ccccc2)[C@@H](OC(=O)c2ccccc2)C=C1OC(=O)c1ccccc1 | 18.1 µM (inactive) | 18.1 µM (inactive) | 18.9 µM (inactive) | 17 µM (inactive) | 23.5 µM (inactive) | 18.3 µM (inactive) | 33.7 µM (inactive) | 16.2 µM (inactive) | 20.9 µM (inactive) | 17.5 µM (inactive) | 21.5 µM (inactive) | 18.3 µM (inactive) | 17.8 µM (inactive) | 20 µM (inactive) | 28.8 µM (inactive) | 20.2 µM (inactive) | – | 16.4 µM (inactive) | 21.8 µM (inactive) | > 100 µM (inactive)
Cc1cn(C2CC(N=[N+]=[N-])C(C(=O)O)O2)c(=O)[nH]c1=O (configuration not stated) | > 100 µM (inactive) | > 100 µM (inactive) | > 100 µM (inactive) | > 100 µM (inactive) | > 100 µM (inactive) | > 100 µM (inactive) | > 100 µM (inactive) | > 100 µM (inactive) | > 100 µM (inactive) | > 100 µM (inactive) | > 100 µM (inactive) | > 100 µM (inactive) | – | > 100 µM (inactive) | > 100 µM (inactive) | > 100 µM (inactive) | > 100 µM (inactive) | > 100 µM (inactive) | > 100 µM (inactive) | > 100 µM (inactive)
CC1OC(OC2C(O)COC(OC3C(C)OC(OC4C(OC(=O)[C@]56CCC(C)(C)C[C@@H]5C5=CCC7[C@@]8(C)C[C@H](O)[C@H](OC9OC(CO)C(O)C(OC%10OC(CO)C(O)C(O)C%10O)C9O)[C@@](C)(CO)[C@@H]8CC[C@@]7(C)[C@]5(C)CC6)OCC(O)C4O)C(O)C3O)C2O)C(O)C(O)C1O (some centres not stated) | 16.4 µM (inactive) | 14.9 µM (inactive) | 14.5 µM (inactive) | 12.1 µM (inactive) | 19.8 µM (inactive) | 14.9 µM (inactive) | 18.8 µM (inactive) | 19 µM (inactive) | 14.9 µM (inactive) | 13 µM (inactive) | 23.1 µM (inactive) | 21.4 µM (inactive) | 14.4 µM (inactive) | 14.3 µM (inactive) | 16.4 µM (inactive) | 15.5 µM (inactive) | 13.8 µM (inactive) | 22.4 µM (inactive) | 20.6 µM (inactive) | 16.2 µM (inactive)
O=C(O)CC(NC(=O)/C(=C/c1ccccc1)NC(=O)c1ccccc1)C(=O)O (configuration not stated) | > 100 µM (inactive) | > 100 µM (inactive) | > 100 µM (inactive) | > 100 µM (inactive) | > 100 µM (inactive) | > 100 µM (inactive) | > 100 µM (inactive) | > 100 µM (inactive) | > 100 µM (inactive) | > 100 µM (inactive) | > 100 µM (inactive) | > 100 µM (inactive) | > 100 µM (inactive) | > 100 µM (inactive) | > 100 µM (inactive) | > 100 µM (inactive) | > 100 µM (inactive) | > 100 µM (inactive) | > 100 µM (inactive) | > 100 µM (inactive)
COc1cc(C2c3cc4c(cc3OC(NN)C2C)OCO4)cc(OC)c1O (configuration not stated) | 32.5 µM (inactive) | 27 µM (inactive) | 4.52 µM (inactive) | 15.3 µM (inactive) | 3.3 µM (inactive) | 3.66 µM (inactive) | 6.08 µM (inactive) | – | 26.8 µM (inactive) | 10.4 µM (inactive) | 25.4 µM (inactive) | 28.3 µM (inactive) | 3.85 µM (inactive) | – | 8.09 µM (inactive) | 5.96 µM (inactive) | 5.71 µM (inactive) | 10.3 µM (inactive) | 23.6 µM (inactive) | 12.4 µM (inactive)
S=C1N=C(Cl)/C(=C\c2ccccc2)N1 | > 100 µM (inactive) | > 100 µM (inactive) | > 100 µM (inactive) | > 100 µM (inactive) | > 100 µM (inactive) | > 100 µM (inactive) | > 87.7 µM (inactive) | > 100 µM (inactive) | > 100 µM (inactive) | > 100 µM (inactive) | > 100 µM (inactive) | > 100 µM (inactive) | > 100 µM (inactive) | > 100 µM (inactive) | > 100 µM (inactive) | > 100 µM (inactive) | > 83.6 µM (inactive) | > 100 µM (inactive) | > 100 µM (inactive) | 1.06 µM (active)
CC(CN(C)C)C(=O)/C=C/c1ccc(Cl)c(Cl)c1 (configuration not stated) | 5.43 µM (inactive) | 2.11 µM (inactive) | 3.52 µM (inactive) | 12.6 µM (inactive) | 2 µM (inactive) | 1.78 µM (inactive) | 1.31 µM (inactive) | 2.24 µM (inactive) | 4.76 µM (inactive) | 2.09 µM (inactive) | 2.2 µM (inactive) | 1.85 µM (inactive) | 3.44 µM (inactive) | 2.96 µM (inactive) | 0.307 µM (active) | 1.55 µM (inactive) | – | 2.14 µM (inactive) | 1.68 µM (inactive) | 1.94 µM (inactive)
NS(=O)(=O)c1ccc(/N=N/c2nc3[nH]cnc(=S)c3[nH]2)cc1 | > 100 µM (inactive) | 1.74 µM (inactive) | 0.365 µM (active) | 1.03 µM (active) | 0.971 µM (active) | 1.22 µM (inactive) | 4.1 µM (inactive) | 0.82 µM (active) | 4.51 µM (inactive) | 0.369 µM (active) | 4.65 µM (inactive) | 0.885 µM (active) | 1.59 µM (inactive) | 0.564 µM (active) | 0.944 µM (active) | 0.887 µM (active) | 1.93 µM (inactive) | 1.3 µM (inactive) | 11.1 µM (inactive) | 0.682 µM (active)
Cc1ccc(/N=N/c2ccc(N)cc2C)c(S(N)(=O)=O)c1 | > 100 µM (inactive) | > 100 µM (inactive) | 76.6 µM (inactive) | > 100 µM (inactive) | > 100 µM (inactive) | 50.4 µM (inactive) | > 100 µM (inactive) | 49.3 µM (inactive) | > 100 µM (inactive) | > 100 µM (inactive) | > 100 µM (inactive) | > 100 µM (inactive) | 56.1 µM (inactive) | > 100 µM (inactive) | 61.9 µM (inactive) | 36.4 µM (inactive) | > 100 µM (inactive) | > 100 µM (inactive) | 32.1 µM (inactive) | –
CC1C(C#N)(C#N)C(C#N)=C(N)C1(C)[N+](=O)[O-] (configuration not stated) | > 100 µM (inactive) | > 100 µM (inactive) | > 100 µM (inactive) | 43.1 µM (inactive) | > 100 µM (inactive) | 67.9 µM (inactive) | > 100 µM (inactive) | 30.6 µM (inactive) | 47.4 µM (inactive) | > 100 µM (inactive) | > 100 µM (inactive) | > 100 µM (inactive) | > 100 µM (inactive) | > 100 µM (inactive) | 24.8 µM (inactive) | 36.7 µM (inactive) | 48.2 µM (inactive) | 42.1 µM (inactive) | 2.92 µM (inactive) | 47.6 µM (inactive)
CCCCCCCCC/C=C1/CC(CO)(COC(=O)C2CCCCC2)OC1=O (configuration not stated) | > 100 µM (inactive) | > 100 µM (inactive) | > 100 µM (inactive) | > 100 µM (inactive) | > 100 µM (inactive) | > 100 µM (inactive) | > 100 µM (inactive) | > 100 µM (inactive) | > 100 µM (inactive) | > 100 µM (inactive) | > 100 µM (inactive) | > 100 µM (inactive) | > 100 µM (inactive) | 63.7 µM (inactive) | > 100 µM (inactive) | 63.1 µM (inactive) | 43.3 µM (inactive) | > 100 µM (inactive) | > 100 µM (inactive) | > 100 µM (inactive)

Source: ChEMBL document CHEMBL1201862, “PubChem BioAssay data set” (2004)
